We go through twelve molecules from BindingDB's records for doi:10.3109/14756369709035816 (R & D, Zambon Group, 1997).

SMILES strings stand for the structures.

This experiment concerns the target T1, Neprilysin (Rattus norvegicus, UniProt P07861).
T1 sequence (P07861 whole entry): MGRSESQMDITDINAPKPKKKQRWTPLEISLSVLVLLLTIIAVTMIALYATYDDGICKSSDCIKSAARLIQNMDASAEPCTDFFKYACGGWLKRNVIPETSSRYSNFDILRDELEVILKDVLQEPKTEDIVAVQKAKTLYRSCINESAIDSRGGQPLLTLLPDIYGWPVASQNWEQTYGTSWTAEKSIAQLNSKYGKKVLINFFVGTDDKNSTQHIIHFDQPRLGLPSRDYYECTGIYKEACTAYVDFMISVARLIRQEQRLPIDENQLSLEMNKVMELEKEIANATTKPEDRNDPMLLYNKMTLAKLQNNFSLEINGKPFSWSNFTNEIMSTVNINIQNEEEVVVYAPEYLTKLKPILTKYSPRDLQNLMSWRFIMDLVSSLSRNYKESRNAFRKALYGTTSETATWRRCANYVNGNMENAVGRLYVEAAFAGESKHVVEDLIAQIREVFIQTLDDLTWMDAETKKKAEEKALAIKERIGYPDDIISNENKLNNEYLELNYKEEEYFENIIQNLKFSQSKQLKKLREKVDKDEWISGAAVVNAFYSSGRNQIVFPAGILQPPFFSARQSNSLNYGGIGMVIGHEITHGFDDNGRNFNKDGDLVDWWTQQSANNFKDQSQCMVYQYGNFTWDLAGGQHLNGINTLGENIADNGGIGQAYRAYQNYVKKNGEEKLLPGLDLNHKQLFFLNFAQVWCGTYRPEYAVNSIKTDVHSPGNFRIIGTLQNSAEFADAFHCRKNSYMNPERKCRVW
Briefly: Enzyme Inhibition Assay. The conditions noted are these: 25 °C. An excerpt:
Enzyme inhibition assay using neutrol endopeptiase EC 3.4.24.11 (NEP).
Turning to `O=C(O)c1cc(NC(=O)C(CS)Cc2ccc(Cl)cc2)c[nH]1` (configuration not stated) [NEP inhibitor, 6n], the IC50 (commonly the midpoint of a concentration-inhibition curve) turned out to be 2 nM.
On to `O=C(O)c1cncc(NC(=O)C(CS)Cc2ccccc2)c1` (configuration not stated) [NEP inhibitor, 6h], for which the IC50 is 5 nM.
On to `CN(C)C(=O)c1ccnc(NC(=O)C(CS)Cc2ccccc2)c1` (configuration not stated) [NEP inhibitor, 6r], for which inhibition was half-maximal at 5 nM (IC50).
`O=C(Nc1ccccc1)c1ccnc(NC(=O)C(CS)Cc2ccccc2)c1` (configuration not stated) [NEP inhibitor, 6s] yielded an IC50 of 250 nM.
Take `O=C(Nc1ccn[nH]1)C(CS)Cc1ccccc1` (configuration not stated) [NEP inhibitor, 6q]: half-maximal inhibition (IC50) required 23 nM.
`O=C(O)c1cc(NC(=O)C(CS)Cc2ccccc2)c[nH]1` (configuration not stated) [NEP inhibitor, 6m]: the IC50 worked out at 2 nM.
In turn, `O=C(O)c1cc(NC(=O)C(CS)Cc2ccccc2)cs1` (configuration not stated) [NEP inhibitor, 6k] returned an IC50 of 2 nM.
`O=C(O)c1ccnc(NC(=O)C(CS)Cc2ccc3c(c2)OCO3)c1` (configuration not stated) [NEP inhibitor, 6j] had an IC50 of 5.5 nM.
`O=C(O)c1ccnc(NC(=O)C(CS)Cc2ccccc2)c1` (configuration not stated) [NEP inhibitor, 6i] registered an IC50 of 3 nM.
With `CC(CS)C(=O)Nc1cncc(C(=O)O)c1` (configuration not stated) [NEP inhibitor, 6g], 60 nM corresponded to half-maximal inhibition (IC50).
As to `O=C(O)c1cc(NC(=O)C(CS)Cc2cccnc2)cs1` (configuration not stated) [NEP inhibitor, 6l], the IC50 was 13 nM.
Regarding `O=C(O)c1csc(NC(=O)C(CS)Cc2ccccc2)n1` (configuration not stated) [NEP inhibitor, 6p], the IC50 is 9 nM.
